Converted amounts (≈) assume the structure as drawn. Where two headings read alike, the source gives them in different places. Marks after values point to notes of the source that are not given here.
How the values were obtained:
[1] = test system: Candida albicans ATCC 90028; assay: Antifungal susceptibility testing (modified NCCLS), Ca; format: cell-based; conditions: for IC50 Ca: NA not defined in Table 1
Description: (§1) Compounds were evaluated in vitro against a panel of microorganisms, including Candida albicans ATCC 90028 (Ca), C. krusei ATCC 6258 (Ck), Cryptococcus neoformans ATCC 90113 (Cn), Staphylococcus aureus ATCC 29213 (Sa), methicillin-resistant S. aureus ATCC 43300 (MRSA), Pseudomonas aeruginosa ATCC 27853 (Pa), Aspergilllus fumigatus ATCC 90906 (Aj), and Mycobacterium intracellulare ATCC 23068 (Mi) as previously reported [Guoyi, M.; Khan, S.; Jacob, M. R; Tekwani, B. L.; Li, Z.; Pasco, D. S.; Walker, L. A.; Khan, 1. A.; Antimicrob Agents Chemother, 2004, 48, 4450-4452]. All organisms were obtained from the American Type Culture Collection (Manassas, Va.). Susceptibility testing was performed using a modified version of the NCCLS methods [a) National Committee for Clinical Laboratory Standards. 2000. Methods for dilution antimicrobial susceptibility tests for bacteria that grow aerobically. M7-A5. National Committee for Clinical Laboratory Standards, Wayne, Pa. b) National Committee for Clinical Laboratory Standards, 1997, Reference method for broth dilution antifungal susceptibility testing of yeasts. Approved standard M27-A. National Committee for Clinical Laboratory Standards, Wayne, Pa. c) National Committee for Clinical Laboratory Standards. 2000. Susceptibility testing of mycobacteria, nocardia, and other aerobic actinomycetes, 2nd ed. Tentative standard M24- T2. National Committee for Clinical Laboratory Standards, Wayne, Pa.] for all organisms except for M intracellulare, for which the modified Alamar blue procedure described by Franzblau et al [1998. J Clin Microbiol, 36, 362-366] was followed. Briefly, samples (dissolved in DMSO) were serially diluted by using 0.9% saline and transferred in duplicate to 96-well microplates. Microbial inocula were prepared after comparison of the absorbance (at 630 nm) of cell suspensions to the 0.5 McFarland standard and dilution of the suspensions in broth (Sabouraud dextrose and cation-adjusted Mueller-Hinton broth [Difco] for the fungi and bacteria, respectively, and 5% Alamar blue [BioSource international] in Middlebrook 7H9 broth with oleic acid-albumin-dextrose-catalase enrichment for M intracellulare) to afford recommended inoculum sizes. Microbial inocula were added to the samples to achieve a final volume of 200 μl and final sample concentrations starting with 100 μg/ml. Growth, solvent, and medium controls were included on each test plate. The plates were read at either 630 nm or excitation and emission wavelengths of 544 and 590 nm (for Mi) prior to and after incubation. Percent growth was calculated and plotted with the concentration tested to afford the concentration that inhibits 50% of growth (IC50). Antimalarial and cytotoxicity testing were conducted in a similar manner as previously reported [a) Muhammad, 1.; Bedir, E.; Khan, S. I.; Tekwani, B. L.; Khan, I. A.; Takamatsu, S.; Pelletier, 1.; Walker, L. A. J Nat Prod. 2004, 67, 772-7. b) Muhammad, 1.; Dunbar, D. C.; Khan, S. 1.; Tekwani, B. L.; Bedir, E.; Takamatsu, S.; Ferreira, D, Walker L A., J Nat Prod. 2003, 66, 962-7].

[2] = test system: Cryptococcus neoformans ATCC 90113; assay: Antifungal susceptibility testing (modified NCCLS), Cn; format: cell-based; conditions: for IC50 Cn: NA not defined in Table 1
Description: as §1

C. krusei ATCC 6258 = assay: Antimicrobial susceptibility testing, Ck; format: cell-based, Candida krusei; conditions: Pichia kudriavzevii
Description: as §1, with “National Committee for Clinical Laboratory Standards, Wayne, Pa.] for all organisms except for M intracellulare, for which the modified Alamar blue procedure described by Franzblau et al [1998. J Clin Microbiol, 36, 362-366] was followed. Briefly, samples (dissolved in DMSO) were serially diluted by using 0.9% saline and transferred in duplicate to 96-well microplates.” left out, “Microbial inocula were added to the samples to achieve a final volume of 200 μl and final sample concentrations starting with 100 μg/ml. Growth, solvent, and medium controls were included on each test plate.” left out, “Percent growth was calculated and plotted with the concentration tested to afford the concentration that inhibits 50% of growth (IC50). Antimalarial and cytotoxicity testing were conducted in a similar manner as previously reported [a) Muhammad, 1.; Bedir, E.; Khan, S. I.; Tekwani, B. L.; Khan, I. A.; Takamatsu, S.; Pelletier, 1.; Walker, L. A. J Nat Prod. 2004, 67, 772-7. b) Muhammad, 1.; Dunbar, D. C.; Khan, S. 1.; Tekwani, B. L.; Bedir, E.; Takamatsu, S.; Ferreira, D, Walker L A., J Nat Prod. 2003, 66, 962-7].” left out

[3] = test system: methicillin-resistant S. aureus ATCC 43300; assay: Antimicrobial susceptibility testing, MRSA; format: cell-based, Staphylococcus aureus; conditions: read-out: IC50 MRSA
Description: as §1, with “Antimalarial and cytotoxicity testing were conducted in a similar manner as previously reported [a) Muhammad, 1.; Bedir, E.; Khan, S. I.; Tekwani, B. L.; Khan, I. A.; Takamatsu, S.; Pelletier, 1.; Walker, L. A. J Nat Prod. 2004, 67, 772-7. b) Muhammad, 1.; Dunbar, D. C.; Khan, S. 1.; Tekwani, B. L.; Bedir, E.; Takamatsu, S.; Ferreira, D, Walker L A., J Nat Prod. 2003, 66, 962-7].” left out

[4] = test system: Mycobacterium intracellulare ATCC 23068; assay: Modified Alamar blue procedure, Mi; format: cell-based; conditions: ATCC23068, read-out: IC50 Mi
Description: as §1, with “Antimalarial and cytotoxicity testing were conducted in a similar manner as previously reported [a) Muhammad, 1.; Bedir, E.; Khan, S. I.; Tekwani, B. L.; Khan, I. A.; Takamatsu, S.; Pelletier, 1.; Walker, L. A. J Nat Prod. 2004, 67, 772-7. b) Muhammad, 1.; Dunbar, D. C.; Khan, S. 1.; Tekwani, B. L.; Bedir, E.; Takamatsu, S.; Ferreira, D, Walker L A., J Nat Prod. 2003, 66, 962-7].” left out

Vero cells = assay: Cytotoxicity to mammalian cells (Vero); format: cell-based
Description: (§2) All organisms were obtained from the American Type Culture Collection (Manassas, Va.). Susceptibility testing was performed using a modified version of the NCCLS methods [a) National Committee for Clinical Laboratory Standards. 2000. Methods for dilution antimicrobial susceptibility tests for bacteria that grow aerobically. M7-A5. […] Approved standard M27-A. National Committee for Clinical Laboratory Standards, Wayne, Pa. c) National Committee for Clinical Laboratory Standards. 2000. Susceptibility testing of mycobacteria, nocardia, and other aerobic actinomycetes, 2nd ed. Tentative standard M24- T2. […] Briefly, samples (dissolved in DMSO) were serially diluted by using 0.9% saline and transferred in duplicate to 96-well microplates. Microbial inocula were prepared after comparison of the absorbance (at 630 nm) of cell suspensions to the 0.5 McFarland standard and dilution of the suspensions in broth (Sabouraud dextrose and cation-adjusted Mueller-Hinton broth [Difco] for the fungi and bacteria, respectively, and 5% Alamar blue [BioSource international] in Middlebrook 7H9 broth with oleic acid-albumin-dextrose-catalase enrichment for M intracellulare) to afford recommended inoculum sizes. Microbial inocula were added to the samples to achieve a final volume of 200 μl and final sample concentrations starting with 100 μg/ml. Growth, solvent, and medium controls were included on each test plate. […] Antimalarial and cytotoxicity testing were conducted in a similar manner as previously reported [a) Muhammad, 1.; Bedir, E.; Khan, S. I.; Tekwani, B. L.; Khan, I. A.; Takamatsu, S.; Pelletier, 1.; Walker, L. A. J Nat Prod.

[5] = test system: Plasmodium falciparum D6 Clone; assay: Antimalarial testing, D6 clone; format: cell-based; conditions: for IC50: Plasmodium falciparum; for SI (D6): SI = IC50 (vero cells)/IC50 (Pf)
Description: as §2

[6] = test system: Plasmodium falciparum W2 Clone; assay: Antimalarial testing, W2 clone; format: cell-based; conditions: for IC50: Plasmodium falciparum; for SI (W2): SI = IC50 (vero cells)/IC50 (Pf)
Description: as §1

[7] = test system: Aspergillus fumigatus ATCC 90906; assay: Antimicrobial susceptibility testing, Af; format: cell-based; conditions: ATCC90906, read-out: IC50 Af
Description: as §1, with “Antimalarial and cytotoxicity testing were conducted in a similar manner as previously reported [a) Muhammad, 1.; Bedir, E.; Khan, S. I.; Tekwani, B. L.; Khan, I. A.; Takamatsu, S.; Pelletier, 1.; Walker, L. A. J Nat Prod. 2004, 67, 772-7. b) Muhammad, 1.; Dunbar, D. C.; Khan, S. 1.; Tekwani, B. L.; Bedir, E.; Takamatsu, S.; Ferreira, D, Walker L A., J Nat Prod. 2003, 66, 962-7].” left out

[8] = D6 Clone, read-out: Plasmodium falciparum IC50 Pf (D6)
[9] = W2 Clone, NA = Not active up to 20 μg/ml, read-out: Plasmodium falciparum IC50 Pf (W2)

IC50 [5, 8]	IC50 [6, 9]	Molecule	IC50 Ca [1]	IC50 Cn [2]	IC50 [4]	Cytotoxicity (Vero) TC50 (Vero cells; African green monkey)	SI (D6) ([5]; D6 Clone)	SI (W2) ([6]; W2 Clone)	IC50 [7]	further results
–	–	Cn1c2ccccc2c2c1cc1ccccc1[n+]2CCCCCc1ccccc1.[Br-] [Compound 7b]	4.3 µg/mL	4.3 µg/mL	–	–	–	–	–	–
–	–	cryptolepine [Compound 2b, reference compound]	0.8 to 180 µg/mL	15.6^d μg/ml	–	–	–	–	–	–
0.26 µg/mL	0.14 µg/mL	C[n+]1c2ccccc2cc2c1c1ccccc1n2CCCCCn1c2ccccc2c2c1cc1ccccc1[n+]2C [Compound 12]	–	–	15 µg/mL	>23.8 µg/mL	>91.5	>170	20 µg/mL	IC50 (C. krusei ATCC 6258; ATCC6258, Candida krusei, read-out: IC50 Ck): 15 µg/mL; IC50 ([3]; Methicillin-Resistant Staphylococcus aureus): 6 µg/mL; IC50 ([1]; ATCC90028, NA not defined in Table 1, read-out: IC50 Ca): 2 µg/mL; no cytotoxicity up to (concentration) (Vero cells; African green monkey): > 23.8 µg/mL; IC50 ([2]; ATCC90113, NA not defined in Table 1, read-out: IC50 Cn): 2 µg/mL
0.0085 µg/mL (≈ 0.0301 µM)	0.0031 µg/mL (≈ 0.011 µM)	C[C@@H]1CC[C@H]2[C@@H](C)C(=O)O[C@@H]3O[C@@]4(C)CC[C@@H]1[C@]32OO4 [Artemisinin, reference compound]	–	–	–	>23.8 µg/mL	–	–	–	–
–	–	Cn1c2c3ccccc3nc-2cc2ccccc21 [Compound 2b, cryptolepine, reference compound]	–	–	15 µg/mL (≈ 64.6 µM)	–	54	18.5	> 20 µg/mL	IC50 (C. krusei ATCC 6258; ATCC6258, read-out: IC50 Ck): 4.5 µg/mL (≈ 19.4 µM); IC50 ([3]; Staphylococcus aureus): 20 µg/mL (≈ 86.1 µM); Cytotoxicity (Vero) TC50 (Vero cells; Vero cells, NC = No Cytotoxicity observed up to 5 μg/ml): 2.4 µg/mL; IC50 ([5]; D6, read-out: Plasmodium falciparum IC50 Pf (D6)): 0.044 µg/mL (≈ 0.189 µM); IC50 ([6]; W2, read-out: Plasmodium falciparum IC50 Pf (W2)): 0.13 µg/mL (≈ 0.56 µM)
–	–	C[n+]1c(-c2ccccc2)ccc2ccccc21 [Compound 8a]	–	–	–	–	–	–	–	melting point: 196 to 198 °C; IC50 ([1]; ATCC90028, read-out: IC50 Ca): 180 µg/mL; IC50 ([2]; ATCC90113, read-out: IC50 Cn): 43 µg/mL
